From patent US8030452B2, “IFBM'S to promote the specific attachment of target analytes to the surface of orthopedic implants” (priority 2004, dated 2011)

Key:
BMP on collagen sponge = BMP on collagen sponge (Homo sapiens, UniProt P12643)
Experimental: To each well, a 2/16″ diameter collagen sponge (Medtronic) was added. The collagen and peptide solutions were allowed to incubate for 1.5 hours at room temperature. Sponges were then rinsed three times with 200 μL Medtronic buffer at 2200 rpm for 1 minute. To each sponge, a primary antibody directed at BMP (diluted 1:1000; R&D Systems #MAB3552) was added for 1 hour at room temperature. A secondary antibody conjugated to alkaline phosphatase (1:5000) was then incubated in the system for 0.5 hour at room temperature.

BMP-7 = target: T1, BMP-7 (Homo sapiens, UniProt P18075); experiment: Binding of biotinylated peptides to BMP-7 (FIG. 12); conditions: biotinylated peptide
T1 sequence (P18075 293-431): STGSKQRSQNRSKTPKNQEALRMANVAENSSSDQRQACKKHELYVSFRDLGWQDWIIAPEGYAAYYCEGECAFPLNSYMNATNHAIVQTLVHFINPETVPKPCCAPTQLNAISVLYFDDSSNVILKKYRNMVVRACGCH

BMP-4 = target: T2, BMP-4 (Homo sapiens, UniProt P12644); experiment: Binding of biotinylated peptides to BMP-4 (FIG. 12); conditions: biotinylated peptide
T2 sequence (P12644 293-408): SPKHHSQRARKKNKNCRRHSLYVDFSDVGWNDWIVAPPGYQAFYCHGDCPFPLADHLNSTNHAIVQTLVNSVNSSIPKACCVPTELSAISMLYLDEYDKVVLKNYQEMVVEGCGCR

BMP-2 = target: T3, BMP-2 (Homo sapiens, UniProt P12643); experiment: Binding of biotinylated peptides to BMP-2 (FIG. 12); conditions: biotinylated peptide
T3 construct: purchased Medtronic
T3 sequence (P12643 283-396): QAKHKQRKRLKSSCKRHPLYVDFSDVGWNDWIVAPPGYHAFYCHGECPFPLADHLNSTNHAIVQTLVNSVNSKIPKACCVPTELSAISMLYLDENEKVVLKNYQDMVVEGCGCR
Experimental: Briefly, peptide stock solutions were made by dissolving the powder in 100% DMSO to make a 10 mM solution of peptide, water was then added for a final stock concentration of peptide of 1 mM in 10% DMSO. Serial dilutions of the peptide were made in PBS-T. A dilution series of BMP-2 with concentrations ranging from 100 nM to 0.1 nM was immobilized onto the wells of microtiter plates (Immulon-4® HBX from Dynex Technologies, Chantilly, Va.) and blocked with 1% BSA. […] The […] were washed 3 times with PBS-T. Streptavidin-alkaline phosphatase (SA-AP) from USB (United States Biochemical, catalog #11687) was added (1:1000 in PBS-T) and incubated 1 hour at room temperature with shaking. The plates were washed 3 times with PBS-T and the amount of peptide:SA-AP was determined by adding PNPP (Sigma-Aldrich, Inc., SigmaFast tablets, catalog #N1891) and allowing the color to develop for about 10 minutes.
To confirm these BMP binding results, the peptides were also tested in an alternate assay format in which the peptide and BMP2 were allowed to bind in solution and then assayed. Briefly, the peptides were synthesized with a biotin group attached to the ε amino group of a lysine residue at the C-terminus of the peptide. […] The plates were washed with TBS-Tween™ 20 and the antibody binding was detected using the chromogenic AP substrate pNPP. […]

[1] = for binding to titanium: FIG. 3; for EC50: read-out: [peptide] ½ maximal signal (relative affinity for titanium), biotin-conjugated peptide, titanium beads, 1 hour room temperature, absorbance 405 nm
Experimental: AFF6007 and AFF6010 were prepared at 200 μM.
Beads were washed two times with PBS/Tween™ 20.

Substance: DVNSIWMSRVIEWTYDSGSSGKSRSSDSAFSSFSALEGSVVSR-NH2 [AFF7008]
- BMP retained on collagen sponge (BMP on collagen sponge): increase the amount of BMP on the sponge when compared to no IFBM, but to a lesser extent than AFF7010

Substance: DVNSIWMSRVIEWTYDSGSSGKSSDWGVVASAWDAFEALDASR-NH2 [AFF7017]
- BMP retained on collagen sponge (BMP on collagen sponge): increase the amount of BMP on the sponge when compared to no IFBM, but to a lesser extent than AFF7010

Substance: DVNSIWMSRVIEWTYDSGSSGKSSFEPLRFPLKGVPVSR-NH2 [AFF7006]
- amount of BMP-2 retained on collagen with increasing IFBM concentration (BMP on collagen sponge): leads to a larger amount of BMP-2 that is retained on the collagen

Substance: DVNSIWMSRVIEWTYDSGSSGKSSSVDLYFPLKGDVVSR-NH2 [AFF7010]
- BMP retained on collagen sponge (BMP on collagen sponge): retains more BMP on the sponge than the sponges without IFBM
- amount of BMP-2 retained on collagen with increasing IFBM concentration (BMP on collagen sponge): leads to a larger amount of BMP-2 that is retained on the collagen

Substance: SRGGEAAAGAWVSFSALESSR [compound 2007]
- binding to BMP-7 (BMP-7): bound
- binding to BMP-4 (BMP-4): bound
- binding to BMP-2 (BMP-2): bound

Substance: SSDWGVVASAWDAFEALDASR [compound 2011]
- binding to BMP-7 (BMP-7): bound
- binding to BMP-4 (BMP-4): bound
- binding to BMP-2 (BMP-2): bound

Substance: SSFEPLRFPLKGVPVSRGSSGKDVNSIWMSRVIEWTYDS-NH2 [AFF7005]
- amount of BMP-2 retained on collagen with increasing IFBM concentration (BMP on collagen sponge): leads to a larger amount of BMP-2 that is retained on the collagen

Substance: SSSDKCHKHWYCYESKYGGSGSSGK [AFF6007]
- binding to titanium [1]: bind to titanium
- EC50 [1]: 350 nM

Substance: SSSDKSHKHWYSYESKYGGSGSSGK [AFF6010]
- decrease of affinity for titanium on elimination of the cysteine residues of AFF6007 ([1]; AFF6010 versus AFF6007): about 10 fold
- binding to titanium [1]: bind to titanium
- EC50 [1]: 3000 nM

Substance: SSSVDLYFPLKGDVVSRGSSGKDVNSIWMSRVIEWTYDS-NH2 [AFF7009]
- amount of BMP-2 retained on collagen with increasing IFBM concentration (BMP on collagen sponge): leads to a larger amount of BMP-2 that is retained on the collagen
